Molecular target: WT αHL protein pore (Staphylococcus aureus, UniProt P09616)
Format: binding
Conditions: pH 7

WT αHL protein pore, sequence (P09616 27-319 limits assumed): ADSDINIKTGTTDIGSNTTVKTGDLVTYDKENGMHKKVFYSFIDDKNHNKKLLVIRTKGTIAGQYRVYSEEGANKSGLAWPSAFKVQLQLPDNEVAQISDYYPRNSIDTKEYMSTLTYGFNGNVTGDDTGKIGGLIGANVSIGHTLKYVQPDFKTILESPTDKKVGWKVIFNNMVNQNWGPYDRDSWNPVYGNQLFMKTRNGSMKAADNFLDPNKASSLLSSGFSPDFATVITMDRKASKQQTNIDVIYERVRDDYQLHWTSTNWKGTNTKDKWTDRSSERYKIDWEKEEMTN

OC[C@H]1O[C@@H]2O[C@H]3[C@H](O)[C@@H](O)[C@@H](O[C@H]4[C@H](O)[C@@H](O)[C@@H](O[C@H]5[C@H](O)[C@@H](O)[C@@H](O[C@H]6[C@H](O)[C@@H](O)[C@@H](O[C@H]7[C@H](O)[C@@H](O)[C@@H](O[C@H]8[C@H](O)[C@@H](O)[C@@H](O[C@H]9[C@H](O)[C@@H](O)[C@@H](O[C@H]1[C@H](O)[C@H]2O)O[C@@H]9CO)O[C@@H]8CO)O[C@@H]7CO)O[C@@H]6CO)O[C@@H]5CO)O[C@@H]4CO)O[C@@H]3CO [γ-cyclodextrin]
binding kinetics and current attenuation of γ-cyclodextrin binding, pore inserted by the present method compared with the conventional method: the same

Source: US7939270B2 (priority 2005, dated 2011)
